Each structure is given as a SMILES string. Converted amounts (≈) assume the structure as drawn.

Nine molecules from ChEMBL document CHEMBL5247680, “Design, Synthesis, and Biological Activity of Thioguanine-Modified Pleuromutilin Derivatives” (ACS Med Chem Lett, 2023) can be followed below.

For assay [1], the system named is Staphylococcus aureus. Briefly: Antibacterial activity against Methicillin-resistant Staphylococcus aureus ATCC 33591 assessed as bacterial growth inhibition incubated for 20 to 24 hrs by microbroth serial dilution assay. Type of assay: functional. The following applies: time 20-24 hrs.
Assay [2] concerns Staphylococcus aureus. Put plainly: Antibacterial activity against Methicillin-resistant Staphylococcus aureus ATCC 43300 assessed as bacterial growth inhibition incubated for 20 to 24 hrs by microbroth serial dilution assay. Type of assay: functional. The following applies: time 20-24 hrs. (Broth dilution looks for growth in wells or tubes with falling amounts of substance.)
The test system of assay [3] is Staphylococcus epidermidis. Put plainly: Antibacterial activity against Methicillin-resistant Staphylococcus epidermidis ATCC 51625 assessed as bacterial growth inhibition incubated for 20 to 24 hrs by microbroth serial dilution assay. The following applies: time 20-24 hrs. Type of assay: functional.
Assay [4] deals with Staphylococcus epidermidis. Briefly: Antibacterial activity against Methicillin-sensitive Staphylococcus epidermidis ATCC 12228 assessed as bacterial growth inhibition incubated for 20 to 24 hrs by microbroth serial dilution assay. The following applies: time 20-24 hrs. It is filed as functional.
For assay [5], the system named is Staphylococcus aureus. Briefly: Antibacterial activity against Staphylococcus aureus ATCC 25923 assessed as bacterial growth inhibition incubated for 20 to 24 hrs by microbroth serial dilution assay. It is filed as functional. The following applies: time 20-24 hrs.
In assay [6] the test system is Staphylococcus epidermidis. Briefly: Selectivity ratio of MBC for antibacterial activity against Methicillin-sensitive Staphylococcus epidermidis […] to MIC for antibacterial activity against Methicillin-sensitive Staphylococcus epidermidis […]. It is filed as functional.
In assay [7] the test system is Staphylococcus aureus. Put plainly: Selectivity ratio of MBC for antibacterial activity against Staphylococcus aureus to MIC for antibacterial activity against Staphylococcus aureus. It is filed as functional.
For assay [8], the system named is Staphylococcus aureus. Put plainly: Antibacterial activity against Methicillin-sensitive Staphylococcus aureus ATCC 29213 assessed as bacterial growth inhibition incubated for 20 to 24 hrs by microbroth serial dilution assay.
Assay [9] deals with Staphylococcus aureus. Briefly: Selectivity ratio of MBC for antibacterial activity against Methicillin-sensitive Staphylococcus aureus ATCC 29213 to MIC for antibacterial activity against Methicillin-sensitive Staphylococcus aureus ATCC 29213.

In general, MIC refers to the smallest concentration in the dilution series that meets the test's criterion for growth inhibition. In the case of `C=C[C@]1(C)C[C@@H](OC(=O)CSc2nc(N)nc3c2ncn3C(=O)Nc2cccc(F)c2)[C@@]2(C)C3C(=O)CC[C@@]3(CC[C@H]2C)[C@@H](C)[C@@H]1O` (some centres not stated), the minimal inhibitory concentration (MIC) with Staphylococcus aureus [1] came to 0.25 µg/mL (≈ 0.376 µM); in the assay with Staphylococcus aureus [2], 0.25 µg/mL (≈ 0.376 µM); in [3], 0.125 µg/mL (≈ 0.188 µM); in [4], 0.0156 µg/mL (≈ 0.0235 µM); with Staphylococcus aureus [5], 0.25 µg/mL (≈ 0.376 µM); in the assay with Staphylococcus aureus [8], 0.0625 µg/mL (≈ 0.094 µM). Besides, the Ratio (in assay [6]; with Staphylococcus aureus [7]) was more than 4 throughout.

With `C=C[C@]1(C)C[C@@H](OC(=O)CSc2nc(N)nc3c2ncn3C(=O)NCCc2ccccc2)[C@@]2(C)C3C(=O)CC[C@@]3(CC[C@H]2C)[C@@H](C)[C@@H]1O` (some centres not stated), in assay [4], the MIC is less than 0.0078 µg/mL.

On to `C=C[C@]1(C)C[C@@H](OC(=O)CSc2nc(N)nc3c2ncn3C(=O)Nc2ccc(C(C)=O)cc2)[C@@]2(C)C3C(=O)CC[C@@]3(CC[C@H]2C)[C@@H](C)[C@@H]1O` (some centres not stated), for which the minimum inhibitory concentration (MIC) in the assay on Staphylococcus aureus [1] came to 0.0625 µg/mL (≈ 0.0907 µM); in the assay with Staphylococcus aureus [2], 0.125 µg/mL (≈ 0.181 µM); in assay [3], 0.125 µg/mL (≈ 0.181 µM); in assay [4], 0.0156 µg/mL (≈ 0.0226 µM); in the assay on Staphylococcus aureus [5], 0.062 µg/mL (≈ 0.09 µM); in the assay on Staphylococcus aureus [8], 0.125 µg/mL (≈ 0.181 µM). Further, the Ratio in [6] is on record as more than 4; in the assay on Staphylococcus aureus [7] it was more than 4; in the assay with Staphylococcus aureus [9] it was 4.

As to `C=C[C@]1(C)C[C@@H](OC(=O)CSc2nc(N)nc3c2ncn3C(=O)NCc2cccc([N+](=O)[O-])c2)[C@@]2(C)C3C(=O)CC[C@@]3(CC[C@H]2C)[C@@H](C)[C@@H]1O` (some centres not stated), the minimal inhibitory concentration (MIC) is 0.0312 µg/mL (≈ 0.0443 µM) in the assay on Staphylococcus aureus [1]; 0.0625 µg/mL (≈ 0.0885 µM) with Staphylococcus aureus [2]; 0.0625 µg/mL (≈ 0.0885 µM) in assay [3]; less than 0.0078 µg/mL in assay [4]; 0.0625 µg/mL (≈ 0.0885 µM) in the assay with Staphylococcus aureus [5]; 0.0625 µg/mL (≈ 0.0885 µM) with Staphylococcus aureus [8]. Besides, the Ratio in assay [6] is on record as more than 4; with Staphylococcus aureus [7], more than 4; in the assay with Staphylococcus aureus [9], 4.

Take `C=C[C@]1(C)C[C@@H](OC(=O)CSc2nc(N)nc3c2ncn3C(=O)c2ccc(C)cc2)[C@@]2(C)C3C(=O)CC[C@@]3(CC[C@H]2C)[C@@H](C)[C@@H]1O` (some centres not stated): the minimal inhibitory concentration (MIC) is 0.125 µg/mL (≈ 0.194 µM) with Staphylococcus aureus [1]; 0.25 µg/mL (≈ 0.387 µM) with Staphylococcus aureus [2]; 0.125 µg/mL (≈ 0.194 µM) in [3]; 0.0078 µg/mL (≈ 0.0121 µM) in assay [4]; 0.125 µg/mL (≈ 0.194 µM) in the assay with Staphylococcus aureus [5]; 0.125 µg/mL (≈ 0.194 µM) in the assay with Staphylococcus aureus [8]. In addition, the Ratio (in assay [6]; in the assay with Staphylococcus aureus [7]) was more than 4 in each case.

For the molecule `C=C[C@]1(C)C[C@@H](OC(=O)CSc2nc(N)nc3c2ncn3C(=O)NCc2ccc(OC)cc2)[C@@]2(C)C3C(=O)CC[C@@]3(CC[C@H]2C)[C@@H](C)[C@@H]1O` (some centres not stated), the minimal inhibitory concentration (MIC) in the assay on Staphylococcus aureus [1] is 0.0625 µg/mL (≈ 0.0905 µM); with Staphylococcus aureus [2] it was 0.0625 µg/mL (≈ 0.0905 µM); in assay [3], 0.0312 µg/mL (≈ 0.0452 µM); in [4] it was less than 0.0312 µg/mL; in the assay with Staphylococcus aureus [5] it was 0.125 µg/mL (≈ 0.181 µM); in the assay on Staphylococcus aureus [8], 0.0625 µg/mL (≈ 0.0905 µM). Further, the Ratio (in [6]; in the assay on Staphylococcus aureus [7]) was more than 4 throughout.

`C=C[C@]1(C)C[C@@H](OC(=O)CSc2nc(N)nc3c2ncn3C(=O)NCc2ccc([N+](=O)[O-])cc2)[C@@]2(C)C3C(=O)CC[C@@]3(CC[C@H]2C)[C@@H](C)[C@@H]1O` (some centres not stated): the MIC in the assay with Staphylococcus aureus [1] was 0.25 µg/mL (≈ 0.354 µM); with Staphylococcus aureus [2], 0.25 µg/mL (≈ 0.354 µM); in assay [3], 0.0625 µg/mL (≈ 0.0885 µM); in assay [4], less than 0.0078 µg/mL; with Staphylococcus aureus [5] it was 0.125 µg/mL (≈ 0.177 µM); in the assay on Staphylococcus aureus [8], 0.0625 µg/mL (≈ 0.0885 µM). For the same molecule, the Ratio (in assay [6]; in the assay on Staphylococcus aureus [7]) was more than 4 in each case.

In the case of `C=C[C@]1(C)C[C@@H](OC(=O)CSc2nc(N)nc3c2ncn3C(=O)c2ccc([N+](=O)[O-])cc2)[C@@]2(C)C3C(=O)CC[C@@]3(CC[C@H]2C)[C@@H](C)[C@@H]1O` (some centres not stated), the MIC in the assay with Staphylococcus aureus [1] was 0.125 µg/mL (≈ 0.185 µM); in the assay with Staphylococcus aureus [2] it was 0.0625 µg/mL (≈ 0.0923 µM); in assay [3], 0.0625 µg/mL (≈ 0.0923 µM); in assay [4] it was less than 0.0078 µg/mL; in the assay on Staphylococcus aureus [5] it was 0.125 µg/mL (≈ 0.185 µM); with Staphylococcus aureus [8], 0.0625 µg/mL (≈ 0.0923 µM). Moreover, the Ratio (in assay [6]; in the assay on Staphylococcus aureus [7]) was more than 4 in each case.

As for `C=C[C@]1(C)C[C@@H](OC(=O)CSc2nc(NC(=O)CN3CCC(O)CC3)nc3[nH]cnc23)[C@@]2(C)C3C(=O)CC[C@@]3(CC[C@H]2C)[C@@H](C)[C@@H]1O` (some centres not stated), the minimal inhibitory concentration (MIC) in the assay with Staphylococcus aureus [1] was found to be 16 µg/mL (≈ 23.9 µM); in the assay with Staphylococcus aureus [2], 32 µg/mL (≈ 47.8 µM); in [3], 2 µg/mL (≈ 2.99 µM); in assay [4] it was 2 µg/mL (≈ 2.99 µM); in the assay on Staphylococcus aureus [5] it was 16 µg/mL (≈ 23.9 µM); in the assay with Staphylococcus aureus [8], 16 µg/mL (≈ 23.9 µM). Besides, the Ratio (in assay [6]; in the assay on Staphylococcus aureus [7]) was more than 4 in each case.
